Laboratory results taken from US12459912B2 (priority 2020, dated 2025).

Key:
[1] = target: 5-Hydroxytryptamine (Serotonin) Receptor 1B (5-HT1B) (Homo sapiens, UniProt P28222); assay: 5-HT1B/cAMP; format: cell-based; conditions: EC50 (μM)
[2] = target: T1, KvLQT1/minK (Homo sapiens, UniProt P51787); assay: KvLQT1/minK/Ion Channel; format: cell-based
T1 construct: expressed in transfected cells

[3] = target: AVPR1A (Arginine Vasopressin Receptor 1A) (Homo sapiens, UniProt P37288); assay: AVPR1A/Calcium Flux; format: cell-based
[4] = target: OPRK1 (Opioid Receptor Kappa 1) (Homo sapiens, UniProt P41145); assay: OPRK1/cAMP; format: cell-based
Sequence of OPRK1 (Opioid Receptor Kappa 1) (P41145 whole entry): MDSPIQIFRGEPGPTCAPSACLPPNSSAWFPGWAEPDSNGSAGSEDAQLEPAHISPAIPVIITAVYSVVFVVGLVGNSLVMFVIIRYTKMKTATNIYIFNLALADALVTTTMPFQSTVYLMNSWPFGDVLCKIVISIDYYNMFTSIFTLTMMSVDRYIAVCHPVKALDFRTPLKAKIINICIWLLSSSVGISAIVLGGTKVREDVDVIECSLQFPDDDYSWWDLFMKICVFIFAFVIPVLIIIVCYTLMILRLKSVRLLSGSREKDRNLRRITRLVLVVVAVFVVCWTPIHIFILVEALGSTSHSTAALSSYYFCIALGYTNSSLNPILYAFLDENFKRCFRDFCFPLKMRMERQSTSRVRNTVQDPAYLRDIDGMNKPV

[5] = target: DRD1 (Dopamine Receptor D1) (Homo sapiens, UniProt P21728); assay: DRD1/cAMP; format: cell-based
[6] = target: T2, hERG (Homo sapiens, UniProt Q12809); assay: hERG/Ion Channel; format: cell-based
T2 construct: expressed in transfected cells

[7] = target: ADRA2A (Adrenergic Receptor on α2A) (Homo sapiens, UniProt P08913); assay: ADRA2A/cAMP; format: cell-based
[8] = target: T3, DAT (Dopamine transporter) (Homo sapiens, UniProt Q01959); assay: DAT/Transporter (fluorescent substrate uptake); format: cell-based
T3 construct: expressed in transfected cells
T3 sequence (Q01959 whole entry): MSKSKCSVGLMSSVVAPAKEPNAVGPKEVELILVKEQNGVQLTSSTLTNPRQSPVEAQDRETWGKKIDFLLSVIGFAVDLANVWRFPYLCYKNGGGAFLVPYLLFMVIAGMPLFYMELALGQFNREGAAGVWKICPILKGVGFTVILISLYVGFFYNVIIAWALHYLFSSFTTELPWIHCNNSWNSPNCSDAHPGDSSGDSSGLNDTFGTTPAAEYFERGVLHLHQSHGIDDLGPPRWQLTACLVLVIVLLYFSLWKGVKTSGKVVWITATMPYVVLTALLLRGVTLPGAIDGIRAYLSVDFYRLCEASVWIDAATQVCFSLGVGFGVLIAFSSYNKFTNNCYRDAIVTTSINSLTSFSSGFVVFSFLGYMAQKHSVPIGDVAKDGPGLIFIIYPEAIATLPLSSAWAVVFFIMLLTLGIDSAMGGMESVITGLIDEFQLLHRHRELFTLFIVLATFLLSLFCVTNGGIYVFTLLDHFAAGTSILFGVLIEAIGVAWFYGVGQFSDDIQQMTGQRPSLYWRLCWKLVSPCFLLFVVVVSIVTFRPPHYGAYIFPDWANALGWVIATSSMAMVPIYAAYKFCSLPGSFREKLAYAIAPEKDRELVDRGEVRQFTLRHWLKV

[9] = target: T4, AChE (Acetylcholinesterase) (Homo sapiens, UniProt P22303); assay: AChE/Enzymatic; format: biochemical
T4 construct: purchased R&D Systems

[10] = target: GR (Nuclear Hormone Glucocorticoid Receptor) (Homo sapiens, UniProt P04150); assay: GR/NHR Protein Interaction; format: cell-based
[11] = target: T5, VEGFR2 (Vascular endothelial growth factor receptor 2 (KDR tyrosine kinase)) (Homo sapiens, UniProt P35968); assay: biochemical; format: binding
T5 construct: made in house; host or cells: E. coli BL21-derived host (T7 phage) or HEK-293

[12] = target: T6, INSR (Insulin Receptor (tyrosine kinase)) (Homo sapiens, UniProt P06213); assay: INSR/Binding (KINOMEscan)
T6 construct: made in house; host or cells: E. coli BL21-derived host (T7 phage) or HEK-293

[13] = target: CHRM1 (Muscarinic acetylcholine Receptor M1) (Homo sapiens, UniProt P11229); assay: cell-based
[14] = target: ADRB1 (Adrenergic Receptor β1) (Homo sapiens, UniProt P08588); assay: ADRB1/cAMP; format: cell-based
[15] = target: CHRM3 (Muscarinic acetylcholine Receptor M3) (Homo sapiens, UniProt P20309); assay: cell-based
[16] = test system: T7, GABAA (Gamma-aminobutyric acid Receptor A); format: cell-based
T7 construct: other: opener

[17] = target: OPRM1 (Opioid Receptor Mu) (Homo sapiens, UniProt P35372); assay: cell-based
Sequence of OPRM1 (Opioid Receptor Mu) (P35372 whole entry): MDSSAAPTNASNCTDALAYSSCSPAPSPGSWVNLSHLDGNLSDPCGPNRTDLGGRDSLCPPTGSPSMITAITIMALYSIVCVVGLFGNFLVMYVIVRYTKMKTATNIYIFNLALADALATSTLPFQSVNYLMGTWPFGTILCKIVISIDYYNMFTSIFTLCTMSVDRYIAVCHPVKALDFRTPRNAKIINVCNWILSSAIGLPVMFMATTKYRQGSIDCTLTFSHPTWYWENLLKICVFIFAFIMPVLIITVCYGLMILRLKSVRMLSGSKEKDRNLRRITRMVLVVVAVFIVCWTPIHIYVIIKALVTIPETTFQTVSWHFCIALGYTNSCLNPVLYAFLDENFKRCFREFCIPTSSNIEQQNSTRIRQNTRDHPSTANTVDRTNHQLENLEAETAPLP

[18] = target: HRH1 (Histamine Receptor H1) (Homo sapiens, UniProt P35367); assay: cell-based
[19] = target: T8, SERT (Serotonin transporter) (Homo sapiens, UniProt P31645); assay: cell-based
T8 construct: expressed in transfected cells

[20] = target: T9, CAV1.2 (Voltage-gated L-type calcium channel) (Homo sapiens, UniProt Q13936); assay: CAV1.2/Ion Channel; format: cell-based
T9 construct: expressed in transfected cells

[21] = target: T10, NMDAR (1A/2B) (N-methyl-D-aspartate (NMDA) Glutamate Receptor 1A/2B) (Homo sapiens, UniProt Q05586+Q13224); assay: NMDAR (1A/2B)/Ion Channel; format: cell-based
T10 construct: expressed in transfected cells

[22] = target: 5-Hydroxytryptamine (Serotonin) Receptor 2A (5-HT2A) (Homo sapiens, UniProt P28223); assay: 5-HT2A/Calcium Flux; format: cell-based; conditions: EC50 (μM)
[23] = target: CHRM2 (Muscarinic acetylcholine Receptor M2) (Homo sapiens, UniProt P08172); assay: CHRM2/cAMP; format: cell-based
[24] = target: ADRB2 (Adrenergic Receptor β2) (Homo sapiens, UniProt P07550); assay: ADRB2/cAMP; format: cell-based; conditions: EC50 (μM)
Sequence of ADRB2 (Adrenergic Receptor β2) (P07550 whole entry): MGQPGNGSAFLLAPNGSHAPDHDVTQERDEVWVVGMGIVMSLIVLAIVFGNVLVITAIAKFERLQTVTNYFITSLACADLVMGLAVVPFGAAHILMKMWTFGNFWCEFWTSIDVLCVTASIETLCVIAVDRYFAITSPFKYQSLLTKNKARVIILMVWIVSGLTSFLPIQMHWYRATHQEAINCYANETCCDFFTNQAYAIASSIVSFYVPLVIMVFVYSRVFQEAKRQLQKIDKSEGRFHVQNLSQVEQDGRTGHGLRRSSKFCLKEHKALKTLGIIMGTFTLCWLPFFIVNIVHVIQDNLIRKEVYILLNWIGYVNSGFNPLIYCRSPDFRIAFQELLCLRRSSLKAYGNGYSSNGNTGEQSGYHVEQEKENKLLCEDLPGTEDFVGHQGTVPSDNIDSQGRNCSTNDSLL

[25] = target: CNR2 (Cannabinoid Receptor 2) (Homo sapiens, UniProt P34972); assay: CNR2/cAMP; format: cell-based
[26] = target: T11, 5-Hydroxytryptamine (Serotonin) Receptor 3A (5-HT3A) (Homo sapiens, UniProt P46098); assay: 5-HT3A/Ion Channel; format: cell-based; conditions: EC50 (μM)
T11 construct: expressed in transfected cells
T11 sequence (P46098 24-478): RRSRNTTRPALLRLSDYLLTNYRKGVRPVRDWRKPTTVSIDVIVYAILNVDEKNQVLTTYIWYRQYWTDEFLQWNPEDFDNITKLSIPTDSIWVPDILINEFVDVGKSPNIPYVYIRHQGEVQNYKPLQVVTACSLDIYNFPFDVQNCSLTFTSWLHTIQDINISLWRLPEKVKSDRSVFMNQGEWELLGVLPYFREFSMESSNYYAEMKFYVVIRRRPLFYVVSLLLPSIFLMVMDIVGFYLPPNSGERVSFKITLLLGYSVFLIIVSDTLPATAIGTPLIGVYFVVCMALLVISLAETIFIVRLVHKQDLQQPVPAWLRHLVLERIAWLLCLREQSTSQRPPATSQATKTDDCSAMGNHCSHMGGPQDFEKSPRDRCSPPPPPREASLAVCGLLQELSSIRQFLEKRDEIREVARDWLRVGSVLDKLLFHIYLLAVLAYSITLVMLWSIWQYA

[27] = target: T12, COX1 (Cyclooxygenase 1) (Homo sapiens, UniProt P23219); assay: COX1/Enzymatic; format: biochemical
T12 construct: purchased BPS Bioscience

[28] = target: T13, PDE4D2 (cAMP-specific 3′,5′-cyclic phospho-diesterase) (Homo sapiens, UniProt Q08499); assay: PDE4D2/Enzymatic; format: biochemical
T13 construct: purchased Signal Chem

[29] = target: T14, LCK (Lymphocyte Cell-Specific Protein-Tyrosine Kinase (Src family)) (Homo sapiens, UniProt P06239); assay: LCK/Binding (KINOMEscan)
T14 construct: made in house; host or cells: E. coli BL21-derived host (T7 phage) or HEK-293
T14 sequence (P06239 whole entry): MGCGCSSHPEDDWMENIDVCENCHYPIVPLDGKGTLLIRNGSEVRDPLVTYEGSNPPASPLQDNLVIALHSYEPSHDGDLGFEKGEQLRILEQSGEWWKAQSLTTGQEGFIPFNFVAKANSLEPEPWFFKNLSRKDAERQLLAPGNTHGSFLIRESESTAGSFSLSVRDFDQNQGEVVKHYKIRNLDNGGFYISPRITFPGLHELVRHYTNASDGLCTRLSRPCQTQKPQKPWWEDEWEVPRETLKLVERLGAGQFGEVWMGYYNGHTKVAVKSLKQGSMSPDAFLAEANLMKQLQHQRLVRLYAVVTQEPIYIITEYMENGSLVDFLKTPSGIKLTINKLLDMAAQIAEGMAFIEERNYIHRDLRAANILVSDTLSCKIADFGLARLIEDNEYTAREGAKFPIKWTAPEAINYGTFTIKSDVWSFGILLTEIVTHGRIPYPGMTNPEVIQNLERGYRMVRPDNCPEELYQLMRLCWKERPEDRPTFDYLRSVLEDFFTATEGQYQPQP

[30] = target: T15, NET (Norepinephrine transporter) (Homo sapiens, UniProt P23975); assay: NET/Transporter (fluorescent substrate uptake); format: cell-based
T15 construct: expressed in transfected cells

[31] = target: EDNRA (Endothelin Receptor Type A) (Homo sapiens, UniProt P25101); assay: EDNRA/Calcium Flux; format: cell-based
Sequence of EDNRA (Endothelin Receptor Type A) (P25101 21-427): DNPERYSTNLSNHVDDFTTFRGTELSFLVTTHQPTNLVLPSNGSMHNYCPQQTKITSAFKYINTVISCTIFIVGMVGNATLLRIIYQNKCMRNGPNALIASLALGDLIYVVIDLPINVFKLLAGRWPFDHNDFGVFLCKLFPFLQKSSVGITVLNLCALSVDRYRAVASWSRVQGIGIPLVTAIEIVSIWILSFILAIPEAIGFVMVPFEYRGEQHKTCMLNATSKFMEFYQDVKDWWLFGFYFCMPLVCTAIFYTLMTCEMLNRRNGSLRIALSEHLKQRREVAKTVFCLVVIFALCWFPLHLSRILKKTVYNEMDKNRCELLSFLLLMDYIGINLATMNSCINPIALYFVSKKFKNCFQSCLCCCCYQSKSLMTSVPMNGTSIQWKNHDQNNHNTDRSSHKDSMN

[32] = target: T16, COX2 (Cyclooxygenase 2) (Homo sapiens, UniProt P35354); assay: COX2/Enzymatic; format: biochemical
T16 construct: purchased BPS Bioscience

[33] = target: T17, MAOA (Monoamine oxidase type A) (Homo sapiens, UniProt P21397); assay: MAOA/Enzymatic; format: biochemical
T17 construct: purchased Sigma

[34] = target: NAV1.5 (tetrodotoxin-resistant voltage-gated sodium channel) (Homo sapiens, UniProt Q14524); assay: cell-based
[35] = target: HRH2 (Histamine Receptor H2) (Homo sapiens, UniProt P25021); assay: HRH2/cAMP; format: cell-based
Sequence of HRH2 (Histamine Receptor H2) (P25021 whole entry): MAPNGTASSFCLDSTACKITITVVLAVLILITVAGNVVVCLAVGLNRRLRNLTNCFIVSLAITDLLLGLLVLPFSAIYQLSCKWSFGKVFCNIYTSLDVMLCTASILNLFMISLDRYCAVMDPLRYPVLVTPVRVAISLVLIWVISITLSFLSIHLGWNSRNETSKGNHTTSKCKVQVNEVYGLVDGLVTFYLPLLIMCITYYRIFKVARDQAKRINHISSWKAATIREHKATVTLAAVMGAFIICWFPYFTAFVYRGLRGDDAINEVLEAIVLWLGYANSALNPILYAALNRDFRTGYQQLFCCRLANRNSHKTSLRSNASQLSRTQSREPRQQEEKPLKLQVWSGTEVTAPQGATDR

Sequence of 5-Hydroxytryptamine (Serotonin) Receptor 1B (5-HT1B) (P28222 whole entry): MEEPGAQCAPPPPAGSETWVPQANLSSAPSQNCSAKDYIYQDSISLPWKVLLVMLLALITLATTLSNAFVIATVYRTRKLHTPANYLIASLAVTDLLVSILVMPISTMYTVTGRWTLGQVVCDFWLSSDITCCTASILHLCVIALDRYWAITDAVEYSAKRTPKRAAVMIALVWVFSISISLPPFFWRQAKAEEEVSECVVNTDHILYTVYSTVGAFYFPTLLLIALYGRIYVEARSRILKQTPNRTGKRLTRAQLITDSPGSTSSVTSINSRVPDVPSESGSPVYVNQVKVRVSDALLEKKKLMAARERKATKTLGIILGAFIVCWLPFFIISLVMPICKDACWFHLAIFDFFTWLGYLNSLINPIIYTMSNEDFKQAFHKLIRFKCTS
T1 sequence (P51787 whole entry): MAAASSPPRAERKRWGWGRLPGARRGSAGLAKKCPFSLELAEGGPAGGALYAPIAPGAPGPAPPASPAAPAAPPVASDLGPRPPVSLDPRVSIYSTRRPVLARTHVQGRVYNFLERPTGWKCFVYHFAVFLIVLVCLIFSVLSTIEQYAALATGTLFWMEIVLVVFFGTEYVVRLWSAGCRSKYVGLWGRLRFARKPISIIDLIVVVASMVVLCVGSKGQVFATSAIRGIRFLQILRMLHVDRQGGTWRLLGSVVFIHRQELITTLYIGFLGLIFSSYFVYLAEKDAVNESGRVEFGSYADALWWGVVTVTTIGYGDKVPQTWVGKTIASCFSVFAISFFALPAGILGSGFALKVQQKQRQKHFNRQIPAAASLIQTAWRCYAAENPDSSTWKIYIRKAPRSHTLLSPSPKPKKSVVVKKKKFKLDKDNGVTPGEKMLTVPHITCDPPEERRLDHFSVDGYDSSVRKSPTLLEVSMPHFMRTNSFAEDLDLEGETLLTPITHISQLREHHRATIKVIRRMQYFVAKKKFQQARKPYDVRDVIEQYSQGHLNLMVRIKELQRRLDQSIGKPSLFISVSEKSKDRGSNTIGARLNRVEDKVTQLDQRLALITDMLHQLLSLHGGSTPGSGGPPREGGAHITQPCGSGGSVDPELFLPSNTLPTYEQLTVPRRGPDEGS

CNC(C)Cc1ccc2ccsc2c1 (stereo not drawn) [drawing 522]
EC50 ([1]; agonist): 0.024 µM | EC50 ([1]; antagonist): > 10 µM | EC50 [2]: > 10 µM | EC50 [3]: > 10 µM | EC50 [4]: > 10 µM | EC50 [5]: > 10 µM | EC50 [6]: > 10 µM | EC50 [7]: > 10 µM | EC50 [8]: 320 nM | EC50 [9]: > 10 µM | EC50 [10]: > 10 µM | EC50 [11]: > 10 µM | EC50 [12]: > 10 µM | EC50 [13]: > 10 µM | EC50 [14]: > 10 µM | EC50 [15]: > 10 µM | EC50 [16]: > 10 µM | EC50 [17]: > 10 µM | EC50 [18]: > 10 µM | EC50 [19]: > 10 µM | EC50 [20]: > 10 µM | EC50 [21]: > 10 µM | EC50 ([22]; agonist): 0.959 µM | EC50 ([22]; antagonist): 1.72 µM | EC50 [23]: > 10 µM | EC50 ([24]; agonist): > 10 µM | EC50 ([24]; antagonist): 5.79 µM | EC50 [25]: > 10 µM | EC50 ([26]; blocker): 5.18 µM | EC50 ([26]; opener): > 10 µM | EC50 [27]: > 10 µM | EC50 [28]: > 10 µM | EC50 [29]: > 10 µM | EC50 [30]: 684 nM | EC50 [31]: > 10 µM | EC50 [32]: > 10 µM | EC50 [33]: 945 nM | EC50 [34]: > 10 µM | EC50 [35]: > 10 µM
